# System: yeast genes (expressed mRNA)
# Experiment: DNA chip measurement of expressed mRNA of yeast genes after culture with a toxic chemical substance
# Format: cell-based, Saccharomyces cerevisiae S288C
# Conditions: for The level of expressed mRNA in the presence of chemical substance/The level of expressed mRNA in the absence of chemical substance: cultured two hours with substance; for level of expressed mRNA in the presence of chemical substance / level in the absence of chemical substance: cultured two hours with the chemical substance
# Experimental: Yeast (Saccharomyces cerevisiae S288C (a SUC2mal mel gap2 CUP1)) were cultured at 25° C. on YPD medium (yeast extract 1%, polypeptone 2%, glucose 2%). One of toxic chemical substances was added to the cell at logarithmic growth phase, and the cell was further cultured for two hours. Cell was cultured without any chemical substance in the same condition, and was used as a control. Concentrations of the chemical substances were defined to inhibit the growth of the yeast but not lead to death.
# After the completion of cultivation, the culture was centrifuged to collect the cells. To the cells, sodium acetate buffer (50 mM sodium acetate, 10 mM EDTA, 1% SDS) was added, and the mixture was shaken at 65° C. for five minutes, followed by returning to room temperature, and obtaining the supernatant, which procedure was repeated two times. To the supernatant, ½ amount of a solution of phenol/chloroform (1:1) was added, and the mixture was centrifuged to give a supernatant, an equal amount of chloroform was added, and the mixture was centrifuged to give a supernatant. To the supernatant, an equal amount of isopropanol containing 0.3 M sodium acetate was added, and the mixture was allowed to stand at room temperature for 30 minutes, after which the mixture was centrifuged to give sediment of the whole RNAs. Seventy % ethanol was added to the sediment, and the mixture was again centrifuged to give sediment, which was then dried and dissolved in water. mRNA was isolated from the whole RNAs as followings. In view of the fact that a poly A chain is attached to the 3′ terminus of mRNA, a polynucleotide having a poly T structure which was immobilized on the surface of latex beads was used to trap the mRNA, and then the mRNA was washed and eluted with spine column (Oligotex-dT30<Super>mRNA Purification Kit, Takara). Reverse transcription of the mRNA was conducted with a reverse transcriptase (Super Script II Reverse Transcriptase; catalogue No. 18064-014, GibcoBRL) using fluorescence-labeled nucleotides to give cDNAs that were introduced with Cy3-dUTP or Cy5-dUTP during the reverse transcription.
# The labeled cDNAs were dissolved in TE buffer (10 mM Tris-HCl/1 mM EDTA, pH 8.0), and the solution was dropped on the DNA chip containing the whole genes of yeast (DNA Chip Research Inc. Japan) so that the cDNAs were hybridized on the DNA chip at 65° C. for over 12 hours. The fluoresces intensity of the DNA chip was read with a scanner, and the ratio relative to the fluorescence intensity resulting from the absence of chemical substance was estimated as the following, which is shown in Tables 1 to 9.
# In the Tables, “Intensity” indicated in the rightmost column is a value of the level of expressed mRNA of each gene in control cells as divided by the average level of the expressions of the whole genes. A gene of which mRNA level is lower in control, and is higher in cases of addition of chemical substance, is especially useful in the detection of toxic substances.
# Here, when a ratio of an amount of mRNA expressed in the presence of the chemical substance to an amount of mRNA expressed in the absence of the chemical substance is two or more, then it is considered significant.
compound,measurement,setting,value
"Cl[C@H]1[C@H](Cl)[C@@H](Cl)[C@@H](Cl)[C@H](Cl)[C@H]1Cl [(7), γ-Hexachlorocyclohexane]",The level of expressed mRNA in the presence of chemical substance/The level of expressed mRNA in the absence of chemical substance,yeast gene YJL151C,1.4
same,The level of expressed mRNA in the presence of chemical substance/The level of expressed mRNA in the absence of chemical substance,yeast gene YJL152W,1.2
same,The level of expressed mRNA in the presence of chemical substance/The level of expressed mRNA in the absence of chemical substance,yeast gene YJL161W,3.6
same,The level of expressed mRNA in the presence of chemical substance/The level of expressed mRNA in the absence of chemical substance,yeast gene YJL171C,1.4
same,The level of expressed mRNA in the presence of chemical substance/The level of expressed mRNA in the absence of chemical substance,yeast gene YJR008W,2.9
same,level of expressed mRNA in the presence of chemical substance / level in the absence of chemical substance,yeast gene YJR030C,0.7
same,The level of expressed mRNA in the presence of chemical substance/The level of expressed mRNA in the absence of chemical substance,yeast gene YJR054W,0.9
same,level of expressed mRNA in the presence of chemical substance / level in the absence of chemical substance,yeast gene YKL051W,0.6
same,The level of expressed mRNA in the presence of chemical substance/The level of expressed mRNA in the absence of chemical substance,yeast gene YKL071W,3.7
same,The level of expressed mRNA in the presence of chemical substance/The level of expressed mRNA in the absence of chemical substance,yeast gene YKL086W,0.7
same,level of expressed mRNA in the presence of chemical substance / level in the absence of chemical substance,yeast gene YKL097C,0.8
same,level of expressed mRNA in the presence of chemical substance / level in the absence of chemical substance,yeast gene YKL100C,1.2
same,The level of expressed mRNA in the presence of chemical substance/The level of expressed mRNA in the absence of chemical substance,yeast gene YKL151C,5.6
same,The level of expressed mRNA in the presence of chemical substance/The level of expressed mRNA in the absence of chemical substance,yeast gene YKL153W,1.1
same,The level of expressed mRNA in the presence of chemical substance/The level of expressed mRNA in the absence of chemical substance,yeast gene YKL195W,2.1
same,level of expressed mRNA in the presence of chemical substance / level in the absence of chemical substance,yeast gene YKR040C,0.9
same,The level of expressed mRNA in the presence of chemical substance/The level of expressed mRNA in the absence of chemical substance,yeast gene YKR091W,1.3
same,The level of expressed mRNA in the presence of chemical substance/The level of expressed mRNA in the absence of chemical substance,yeast gene YLR054C,1.1
same,The level of expressed mRNA in the presence of chemical substance/The level of expressed mRNA in the absence of chemical substance,yeast gene YLR149C,1.6
same,The level of expressed mRNA in the presence of chemical substance/The level of expressed mRNA in the absence of chemical substance,yeast gene YLR152C,1.4
same,The level of expressed mRNA in the presence of chemical substance/The level of expressed mRNA in the absence of chemical substance,yeast gene YLR194C,1.0
same,level of expressed mRNA in the presence of chemical substance / level in the absence of chemical substance,yeast gene YLR226W,1.9
same,The level of expressed mRNA in the presence of chemical substance/The level of expressed mRNA in the absence of chemical substance,yeast gene YLR324W,1.0
same,level of expressed mRNA in the presence of chemical substance / level in the absence of chemical substance,yeast gene YLR338W,0.9
same,The level of expressed mRNA in the presence of chemical substance/The level of expressed mRNA in the absence of chemical substance,yeast gene YLR350W,1.2
same,The level of expressed mRNA in the presence of chemical substance/The level of expressed mRNA in the absence of chemical substance,yeast gene YLR387C,1.1
same,level of expressed mRNA in the presence of chemical substance / level in the absence of chemical substance,yeast gene YLR392C,1.0
same,level of expressed mRNA in the presence of chemical substance / level in the absence of chemical substance,yeast gene YLR415C,1.2
same,level of expressed mRNA in the presence of chemical substance / level in the absence of chemical substance,yeast gene YLR427W,1.2
same,The level of expressed mRNA in the presence of chemical substance/The level of expressed mRNA in the absence of chemical substance,yeast gene YLR460C,1.1
same,level of expressed mRNA in the presence of chemical substance / level in the absence of chemical substance,yeast gene YML013W,1.3
same,level of expressed mRNA in the presence of chemical substance / level in the absence of chemical substance,yeast gene YML029W,1.1
same,level of expressed mRNA in the presence of chemical substance / level in the absence of chemical substance,yeast gene YML041C,1.4
same,level of expressed mRNA in the presence of chemical substance / level in the absence of chemical substance,yeast gene YML079W,1.2
same,The level of expressed mRNA in the presence of chemical substance/The level of expressed mRNA in the absence of chemical substance,yeast gene YML117W,0.7
same,The level of expressed mRNA in the presence of chemical substance/The level of expressed mRNA in the absence of chemical substance,yeast gene YMR009W,1.9
same,The level of expressed mRNA in the presence of chemical substance/The level of expressed mRNA in the absence of chemical substance,yeast gene YMR067C,1.2
same,level of expressed mRNA in the presence of chemical substance / level in the absence of chemical substance,yeast gene YMR068W,1.5
same,level of expressed mRNA in the presence of chemical substance / level in the absence of chemical substance,yeast gene YMR071C,1.8
same,The level of expressed mRNA in the presence of chemical substance/The level of expressed mRNA in the absence of chemical substance,yeast gene YMR090W,2.7
same,The level of expressed mRNA in the presence of chemical substance/The level of expressed mRNA in the absence of chemical substance,yeast gene YMR095C,1.2
same,The level of expressed mRNA in the presence of chemical substance/The level of expressed mRNA in the absence of chemical substance,yeast gene YMR097C,1.5
same,The level of expressed mRNA in the presence of chemical substance/The level of expressed mRNA in the absence of chemical substance,yeast gene YMR102C,1.8
same,The level of expressed mRNA in the presence of chemical substance/The level of expressed mRNA in the absence of chemical substance,yeast gene YMR107W,1.2
same,level of expressed mRNA in the presence of chemical substance / level in the absence of chemical substance,yeast gene YMR160W,1.0
same,The level of expressed mRNA in the presence of chemical substance/The level of expressed mRNA in the absence of chemical substance,yeast gene YMR180C,1.7
same,The level of expressed mRNA in the presence of chemical substance/The level of expressed mRNA in the absence of chemical substance,yeast gene YMR184W,1.6
same,The level of expressed mRNA in the presence of chemical substance/The level of expressed mRNA in the absence of chemical substance,yeast gene YMR191W,2.0
same,The level of expressed mRNA in the presence of chemical substance/The level of expressed mRNA in the absence of chemical substance,yeast gene YMR295C,1.3
same,The level of expressed mRNA in the presence of chemical substance/The level of expressed mRNA in the absence of chemical substance,yeast gene YMR316W,2.0
same,level of expressed mRNA in the presence of chemical substance / level in the absence of chemical substance,yeast gene YNL026W,1.5
same,The level of expressed mRNA in the presence of chemical substance/The level of expressed mRNA in the absence of chemical substance,yeast gene YNL044W,0.9

# Reference: patent US20100041089A1, “IMPROVED METHOD FOR DETECTING CHEMICAL […]” (priority 2006, published 2010)
